# Numbers after ± are expanded uncertainties.
# Experiments:
# [1] = xn = mol fraction of the nth substance listed; settings: Ring tensiometer
# [2] = Ring tensiometer
structure (smiles),measurement,setting,value
CCn1cc[n+](C)c1.O=S(=O)([N-]S(=O)(=O)C(F)(F)F)C(F)(F)F + C1CCOC1,surface tension liquid-gas,"[1]; 293.15 K, x1 = 0.1037",28.72 ± 0.45 mN/m
same,surface tension liquid-gas,"[1]; 293.15 K, x1 = 0.2024",29.94 ± 0.45 mN/m
same,surface tension liquid-gas,"[1]; 293.15 K, x1 = 0.3255",31.05 ± 0.46 mN/m
same,surface tension liquid-gas,"[1]; 293.15 K, x1 = 0.3841",31.62 ± 0.46 mN/m
same,surface tension liquid-gas,"[1]; 293.15 K, x1 = 0.4425",32.12 ± 0.47 mN/m
same,surface tension liquid-gas,"[1]; 293.15 K, x1 = 0.5469",32.98 ± 0.47 mN/m
same,surface tension liquid-gas,"[1]; 293.15 K, x1 = 0.6863",34.07 ± 0.48 mN/m
same,surface tension liquid-gas,"[1]; 293.15 K, x1 = 0.7697",34.55 ± 0.48 mN/m
same,surface tension liquid-gas,"[1]; 293.15 K, x1 = 0.9177",35.65 ± 0.49 mN/m
same,surface tension liquid-gas,"[1]; 293.15 K, x1 = 1",36.14 ± 0.5 mN/m
same,surface tension liquid-gas,"[1]; 298.15 K, x1 = 0.1037",28.1 ± 0.44 mN/m
same,surface tension liquid-gas,"[1]; 298.15 K, x1 = 0.2024",29.42 ± 0.45 mN/m
same,surface tension liquid-gas,"[1]; 298.15 K, x1 = 0.3255",30.62 ± 0.46 mN/m
same,surface tension liquid-gas,"[1]; 298.15 K, x1 = 0.3841",31.18 ± 0.46 mN/m
same,surface tension liquid-gas,"[1]; 298.15 K, x1 = 0.4425",31.76 ± 0.46 mN/m
same,surface tension liquid-gas,"[1]; 298.15 K, x1 = 0.5469",32.63 ± 0.47 mN/m
same,surface tension liquid-gas,"[1]; 298.15 K, x1 = 0.6863",33.81 ± 0.48 mN/m
same,surface tension liquid-gas,"[1]; 298.15 K, x1 = 0.7697",34.38 ± 0.48 mN/m
same,surface tension liquid-gas,"[1]; 298.15 K, x1 = 0.9177",35.46 ± 0.49 mN/m
same,surface tension liquid-gas,"[1]; 298.15 K, x1 = 1",35.9 ± 0.5 mN/m
same,surface tension liquid-gas,"[1]; 303.13 K, x1 = 0.1037",27.52 ± 0.43 mN/m
same,surface tension liquid-gas,"[1]; 303.13 K, x1 = 0.2024",28.84 ± 0.44 mN/m
same,surface tension liquid-gas,"[1]; 303.13 K, x1 = 0.3255",30.18 ± 0.45 mN/m
same,surface tension liquid-gas,"[1]; 303.13 K, x1 = 0.3841",30.82 ± 0.46 mN/m
same,surface tension liquid-gas,"[1]; 303.13 K, x1 = 0.4425",31.41 ± 0.46 mN/m
same,surface tension liquid-gas,"[1]; 303.13 K, x1 = 0.5469",32.39 ± 0.47 mN/m
same,surface tension liquid-gas,"[1]; 303.13 K, x1 = 0.6863",33.52 ± 0.48 mN/m
same,surface tension liquid-gas,"[1]; 303.13 K, x1 = 0.7697",34.15 ± 0.48 mN/m
same,surface tension liquid-gas,"[1]; 303.13 K, x1 = 0.9177",35.22 ± 0.49 mN/m
same,surface tension liquid-gas,"[1]; 303.13 K, x1 = 1",35.56 ± 0.49 mN/m
same,surface tension liquid-gas,"[1]; 308.15 K, x1 = 0.1037",26.88 ± 0.43 mN/m
same,surface tension liquid-gas,"[1]; 308.15 K, x1 = 0.2024",28.33 ± 0.44 mN/m
same,surface tension liquid-gas,"[1]; 308.15 K, x1 = 0.3255",29.84 ± 0.45 mN/m
same,surface tension liquid-gas,"[1]; 308.15 K, x1 = 0.3841",30.52 ± 0.45 mN/m
same,surface tension liquid-gas,"[1]; 308.15 K, x1 = 0.4425",31.07 ± 0.46 mN/m
same,surface tension liquid-gas,"[1]; 308.15 K, x1 = 0.5469",32.08 ± 0.46 mN/m
same,surface tension liquid-gas,"[1]; 308.15 K, x1 = 0.6863",33.26 ± 0.47 mN/m
same,surface tension liquid-gas,"[1]; 308.15 K, x1 = 0.7697",33.92 ± 0.48 mN/m
same,surface tension liquid-gas,"[1]; 308.15 K, x1 = 0.9177",34.98 ± 0.49 mN/m
same,surface tension liquid-gas,"[1]; 308.15 K, x1 = 1",35.35 ± 0.49 mN/m
CCn1cc[n+](C)c1.O=S(=O)([N-]S(=O)(=O)C(F)(F)F)C(F)(F)F + CC#N,surface tension liquid-gas,"[1]; 293.15 K, x1 = 0.0533",30.48 ± 0.47 mN/m
same,surface tension liquid-gas,"[1]; 293.15 K, x1 = 0.1886",32.72 ± 0.48 mN/m
same,surface tension liquid-gas,"[1]; 293.15 K, x1 = 0.337",34.02 ± 0.49 mN/m
same,surface tension liquid-gas,"[1]; 293.15 K, x1 = 0.4724",34.77 ± 0.49 mN/m
same,surface tension liquid-gas,"[1]; 293.15 K, x1 = 0.652",35.38 ± 0.49 mN/m
same,surface tension liquid-gas,"[1]; 293.15 K, x1 = 0.8245",35.83 ± 0.5 mN/m
same,surface tension liquid-gas,"[1]; 293.15 K, x1 = 0.924",35.98 ± 0.5 mN/m
same,surface tension liquid-gas,"[1]; 293.15 K, x1 = 1",36.14 ± 0.5 mN/m
same,surface tension liquid-gas,"[1]; 298.15 K, x1 = 0.0533",29.8 ± 0.46 mN/m
same,surface tension liquid-gas,"[1]; 298.15 K, x1 = 0.1886",32.1 ± 0.48 mN/m
same,surface tension liquid-gas,"[1]; 298.15 K, x1 = 0.337",33.55 ± 0.49 mN/m
same,surface tension liquid-gas,"[1]; 298.15 K, x1 = 0.4724",34.42 ± 0.49 mN/m
same,surface tension liquid-gas,"[1]; 298.15 K, x1 = 0.652",35.11 ± 0.49 mN/m
same,surface tension liquid-gas,"[1]; 298.15 K, x1 = 0.8245",35.6 ± 0.49 mN/m
same,surface tension liquid-gas,"[1]; 298.15 K, x1 = 0.924",35.76 ± 0.49 mN/m
same,surface tension liquid-gas,"[1]; 298.15 K, x1 = 1",35.9 ± 0.5 mN/m
same,surface tension liquid-gas,"[1]; 303.13 K, x1 = 0.0533",29.26 ± 0.45 mN/m
same,surface tension liquid-gas,"[1]; 303.13 K, x1 = 0.1886",31.63 ± 0.47 mN/m
same,surface tension liquid-gas,"[1]; 303.13 K, x1 = 0.337",33.15 ± 0.48 mN/m
same,surface tension liquid-gas,"[1]; 303.13 K, x1 = 0.4724",33.99 ± 0.49 mN/m
same,surface tension liquid-gas,"[1]; 303.13 K, x1 = 0.652",34.8 ± 0.49 mN/m
same,surface tension liquid-gas,"[1]; 303.13 K, x1 = 0.8245",35.29 ± 0.49 mN/m
same,surface tension liquid-gas,"[1]; 303.13 K, x1 = 0.924",35.5 ± 0.49 mN/m
same,surface tension liquid-gas,"[1]; 303.13 K, x1 = 1",35.56 ± 0.49 mN/m
same,surface tension liquid-gas,"[1]; 308.15 K, x1 = 0.0533",28.65 ± 0.45 mN/m
same,surface tension liquid-gas,"[1]; 308.15 K, x1 = 0.1886",31.16 ± 0.47 mN/m
same,surface tension liquid-gas,"[1]; 308.15 K, x1 = 0.337",32.78 ± 0.48 mN/m
same,surface tension liquid-gas,"[1]; 308.15 K, x1 = 0.4724",33.61 ± 0.48 mN/m
same,surface tension liquid-gas,"[1]; 308.15 K, x1 = 0.652",34.49 ± 0.49 mN/m
same,surface tension liquid-gas,"[1]; 308.15 K, x1 = 0.8245",34.99 ± 0.49 mN/m
same,surface tension liquid-gas,"[1]; 308.15 K, x1 = 0.924",35.22 ± 0.49 mN/m
same,surface tension liquid-gas,"[1]; 308.15 K, x1 = 1",35.35 ± 0.49 mN/m
same,surface tension liquid-gas,"[1]; 313.15 K, x1 = 0.0533",28.04 ± 0.44 mN/m
same,surface tension liquid-gas,"[1]; 313.15 K, x1 = 0.1886",30.69 ± 0.46 mN/m
same,surface tension liquid-gas,"[1]; 313.15 K, x1 = 0.337",32.36 ± 0.47 mN/m
same,surface tension liquid-gas,"[1]; 313.15 K, x1 = 0.4724",33.28 ± 0.48 mN/m
same,surface tension liquid-gas,"[1]; 313.15 K, x1 = 0.652",34.2 ± 0.48 mN/m
same,surface tension liquid-gas,"[1]; 313.15 K, x1 = 0.8245",34.75 ± 0.48 mN/m
same,surface tension liquid-gas,"[1]; 313.15 K, x1 = 0.924",35 ± 0.49 mN/m
same,surface tension liquid-gas,"[1]; 313.15 K, x1 = 1",35.1 ± 0.49 mN/m
CC#N [acetonitrile] + CCn1cc[n+](C)c1.O=S(=O)([N-]S(=O)(=O)C(F)(F)F)C(F)(F)F,surface tension liquid-gas,"[1]; 293.15 K, x2 = 0",28.95 ± 0.45 mN/m
same,surface tension liquid-gas,"[1]; 298.15 K, x2 = 0",28.37 ± 0.45 mN/m
same,surface tension liquid-gas,"[1]; 303.13 K, x2 = 0",27.66 ± 0.44 mN/m
same,surface tension liquid-gas,"[1]; 308.15 K, x2 = 0",27.03 ± 0.43 mN/m
same,surface tension liquid-gas,"[1]; 313.15 K, x2 = 0",26.43 ± 0.43 mN/m
C1CCOC1 [tetrahydrofuran] + CCn1cc[n+](C)c1.O=S(=O)([N-]S(=O)(=O)C(F)(F)F)C(F)(F)F,surface tension liquid-gas,"[1]; 293.15 K, x2 = 0",27.31 ± 0.43 mN/m
same,surface tension liquid-gas,"[1]; 298.15 K, x2 = 0",26.68 ± 0.43 mN/m
same,surface tension liquid-gas,"[1]; 303.13 K, x2 = 0",26.04 ± 0.42 mN/m
same,surface tension liquid-gas,"[1]; 308.15 K, x2 = 0",25.38 ± 0.42 mN/m
C1CCOC1 [tetrahydrofuran],surface tension liquid-gas,[2]; 293.15 K,27.31 ± 0.43 mN/m
same,surface tension liquid-gas,[2]; 298.15 K,26.68 ± 0.43 mN/m
same,surface tension liquid-gas,[2]; 303.13 K,26.04 ± 0.42 mN/m
same,surface tension liquid-gas,[2]; 308.15 K,25.38 ± 0.42 mN/m
CC#N [acetonitrile],surface tension liquid-gas,[2]; 293.15 K,28.95 ± 0.45 mN/m
same,surface tension liquid-gas,[2]; 298.15 K,28.37 ± 0.45 mN/m
same,surface tension liquid-gas,[2]; 303.13 K,27.66 ± 0.44 mN/m
same,surface tension liquid-gas,[2]; 308.15 K,27.03 ± 0.43 mN/m
same,surface tension liquid-gas,[2]; 313.15 K,26.43 ± 0.43 mN/m
CCn1cc[n+](C)c1.O=S(=O)([N-]S(=O)(=O)C(F)(F)F)C(F)(F)F,surface tension liquid-gas,[2]; 293.15 K,36.14 ± 0.5 mN/m
same,surface tension liquid-gas,[2]; 298.15 K,35.9 ± 0.5 mN/m
same,surface tension liquid-gas,[2]; 303.13 K,35.56 ± 0.49 mN/m
same,surface tension liquid-gas,[2]; 308.15 K,35.35 ± 0.49 mN/m
same,surface tension liquid-gas,[2]; 313.15 K,35.1 ± 0.49 mN/m
